Key:
Carbonic anhydrase 9 = Carbonic anhydrase 9 (Homo sapiens, UniProt Q16790); assay: Inhibition of human transmembrane carbonic anhydrase 9 by stopped flow CO2 hydration assay
Carbonic anhydrase 1 = Carbonic anhydrase 1 (Homo sapiens, UniProt P00915); assay: Inhibition of human cytosolic carbonic anhydrase 1 by stopped flow CO2 hydration assay
Sequence of Carbonic anhydrase 1 (P00915 whole entry): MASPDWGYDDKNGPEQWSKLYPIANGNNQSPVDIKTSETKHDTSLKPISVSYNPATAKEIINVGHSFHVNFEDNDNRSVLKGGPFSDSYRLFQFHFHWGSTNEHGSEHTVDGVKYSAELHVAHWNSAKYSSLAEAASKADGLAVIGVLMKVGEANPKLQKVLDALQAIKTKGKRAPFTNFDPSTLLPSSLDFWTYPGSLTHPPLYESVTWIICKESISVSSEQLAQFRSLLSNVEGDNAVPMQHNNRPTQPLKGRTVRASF

| SMILES | Ki (Carbonic anhydrase 9) [nM] | Ki (Carbonic anhydrase 1) [nM] |
| --- | --- | --- |
| NS(=O)(=O)c1ccc(-c2n[nH]c(=S)n2-c2ccc(S(N)(=O)=O)cc2)cc1 | 9 | – |
| NS(=O)(=O)c1ccc(-c2nnc3n2N=C(c2ccccc2)CS3)cc1 | 21 | – |
| Cc1ccc(C2=Nn3c(nnc3-c3ccc(S(N)(=O)=O)cc3)SC2)cc1 | 13 | – |
| NS(=O)(=O)c1ccc(-c2nnc3n2N=C(c2ccc(F)cc2)CS3)cc1 | 25 | – |
| NS(=O)(=O)c1ccc(-c2nnc3n2N=C(c2ccc(Cl)cc2)CS3)cc1 | 76 | – |
| NS(=O)(=O)c1ccc(-c2nnc3n2N=C(c2ccc(Br)cc2)CS3)cc1 | 3.7 | – |
| NS(=O)(=O)c1ccc(-c2nnc3n2N=C(c2ccc([N+](=O)[O-])cc2)CS3)cc1 | 115 | – |
| NS(=O)(=O)c1ccc(-c2nnc3sc(-c4ccccc4)nn23)cc1 | 114 | – |
| Cc1ccc(-c2nn3c(-c4ccc(S(N)(=O)=O)cc4)nnc3s2)cc1 | 356 | > 10000 |
| COc1ccc(-c2nn3c(-c4ccc(S(N)(=O)=O)cc4)nnc3s2)cc1 | 431 | > 10000 |
| NS(=O)(=O)c1ccc(-c2nnc3sc(-c4ccc(F)cc4)nn23)cc1 | 64 | > 10000 |
| NS(=O)(=O)c1ccc(-c2nnc3sc(-c4ccc(Cl)cc4)nn23)cc1 | 89 | – |
| NS(=O)(=O)c1ccc(-c2nnc3sc(-c4ccc(Br)cc4)nn23)cc1 | 104 | – |
| NS(=O)(=O)c1ccc(-c2nnc3sc(-c4ccc([N+](=O)[O-])cc4)nn23)cc1 | 41 | > 10000 |
| Cc1ccc(-c2n[nH]c(=S)n2-c2ccc(S(N)(=O)=O)cc2)cc1 | 16 | – |
| NS(=O)(=O)c1ccc(-n2c(-c3ccc(F)cc3)n[nH]c2=S)cc1 | 2.8 | – |
| NS(=O)(=O)c1ccc(-n2c(-c3ccc(Cl)cc3)n[nH]c2=S)cc1 | 5.7 | – |
| NS(=O)(=O)c1ccc(-n2c(-c3ccc(Br)cc3)n[nH]c2=S)cc1 | 7.6 | – |
